Measurements: patent US5877210A, “Phosphotyrosine phosphatase inhibitors or phosphotyrosine kinase activators for controlling cellular proliferation” (priority 1995, dated 1999)

Tests used:
[1] = test system: L1210 murine T cell leukemia cells; test: Apoptosis: DNA fragmentation on agarose gel; format: cell-based; conditions: pV(phen), FIG. 18
Method: For these experiments, cell samples (2×10^6 cells) were centrifuged at 200× g, the media removed by aspiration and the cell pellets stored at -70° C. until processing. Cell pellets were resuspended in 300 μl digestion buffer (100 mM NaCl, 10 mM Tris-HCl, pH 8.0, 25 mM EDTA, 0.5% SDS, 0.1 mg/ml protease K) and incubated for 12 hours at 50° C. DNase-free ribonuclease (5 μg) in 200 μl TE buffer (10 mM Tris-HCl, pH 7.5, 1 mM EDTA) was added to each sample followed by incubation for 2 hours at 37° C. DNA was then extracted once with phenol:chloroform, once with chloroform and then precipitated with 0.5 volumes of ammonium acetate and 2 volumes of ethanol at -70° C. for 12 hours. The precipitated DNA was resuspended in 200 μl TE buffer and quantitated by absorbance at 260 nanometers. The DNA (15 μg) was applied to a 1.3% agarose gel in TBE buffer (89 mM Tris base, 89 mM boric acid, 2 mM EDTA) resolved at 20 mA constant current and the DNA was visualized by staining with ethidium bromide. Fragmented DNA due to apoptosis appeared as a ladder of bands on the gel.
L1210 murine T cell leukemia cells were treated with the indicated concentrations of pV(phen) for the indicated times and the DNA was examined by gel electrophoresis as in Example 3.

[2] = test system: REH, Ramos, CEM, Jurkat, HL-60, and THP-1; test: [3H]thymidine incorporation, cell line panel (FIG. 17); format: cell-based; conditions: 5 μM pV(phen), 5 days
Method: Similar results are shown in FIG. 17 for the cell lines REH, Ramos, CEM, Jurkat, HL-60, and THP-1. Cells were treated 5 days with the amount of inhibitor indicated and [^3 H]-thymidine incorporation was then measured to determine proliferation. The percent inhibition was calculated relative to untreated controls. Results are shown for three concentrations of BMLOV (5 μM, 10 μM, and 25 μM and 5 μM of pV(phen)).

[3] = test system: H3347 carcinoma cells; test: Anti-phosphotyrosine immunoblot; format: cell-based, human
[4] = test system: REH; test: Clonogenic assay in methylcellulose; format: cell-based; conditions: for colonies formed: seven days
Method: The selective cytotoxicity of BMLOV was examined in clonogenic assays. Cells were grown in methylcellulose media and the number of colonies formed after seven days of treatment with various doses of the drug were determined. The clonogenic assays were performed with six replicates for each treatment as described [F. M. Uckun et al., J. Exp. Med. 163:347-368 (1986); F. M. Uckun & J. A. Ledbetter, Proc. Natl. Acad. Sci. USA 85:8603-8607 (1988)). The data is given plus/minus the standard error of the mean.
(§1) For assays of cellular proliferation, cells were grown five days in the presence of the indicated concentrations of BMLOV, pulsed 6 hr with [^3 H]-thymidine (New England Nuclear, Boston, Mass.), and counted in a liquid scintillation counter. Human peripheral blood lymphocytes (PBL) from normal volunteers were isolated from lymphocyte separation medium (Litton Bionetics, Kensington, Md.) by density gradient centrifugation. Monocytes were depleted from PBL by two rounds of plastic absorption for 30 minutes at 37° C. B cells were enriched for by negative selection using complement plus monoclonal antibodies to CD2, CD3, CD4, and CD8 for complement depletion. Clonogenic assays of colony formation in methylcellulose medium were performed as previously described (F. M. Uckun et al. (1992), supra).

[5] = test system: BCL1; test: [3H]thymidine incorporation assay; format: cell-based, murine; conditions: for [3H]cpm incorporation: seven days
Method: For each cell type, the cells were passaged uniformly for all drug doses given during the seven-day period. The cells were then pulsed for six hours with [^3 H]thymidine. The extent of DNA synthesis was then determined by counting the radioactivity incorporated into the cells.
as §1

[6] = test system: Ramos B cells; test: Confocal laser scanning microscopy; format: cell-based, human; conditions: 25 μm BMLOV, 48 h
Method: Cells were fixed with 3.7% formaldehyde in PBS and permeabilized by treatment with 0.1% saponin. […] The cells were then washed three times in staining buffer, and stained with fluorescein-labeled goat anti-rabbit antibody (Molecular Probes). After washing three times in staining buffer, cells were stained for DNA with 2 μg/ml propidium iodide. A Leica GmbH confocal laser scanning microscope (CLSM) (Leica Laser Technic, Heidelberg, Germany) equipped with a krypton/argon laser (Omnichrome, Chino, Calif.), 2 double dichroic beam splitters with λs1 /λs2 of 488/647 and 488/568 nm, 1 neutral density beam splitter (Lys Optics, Denmark), the Leica CLSM software accessories, and the Leica true color display graphics package was used to produce the confocal images.
In addition to DNA fragmentation, apoptotic lymphocytes display condensation of chromatin, loss of DNA and fragmentation of nuclei that can be detected by confocal laser scanning microscopy (CLSM) of propidium iodide stained cells (R. Sgonc & G. Wick, Int. Arch. Allergy Immunol. 105:327-332 (1994)). Therefore, CLSM was used to examine Ramos cells stained for DNA with propidium iodide and stained for phosphotyrosine (FIG. 29). In the experiments shown in FIG. 29, Ramos B cells were fixed, permeabilized and stained with propidium iodide for DNA (red) and with anti-phosphotyrosine antibodies (green) as described above. […]

Structure (SMILES) | induction of apoptosis (DNA fragmentation) [1] | inhibition of proliferation, in words [2] | induction of tyrosine phosphorylation [3] | percentage of inhibition of clonogenic growth ([4]; 1 μM BMLOV) | colonies formed ([4]; 1 μM BMLOV) | percentage of inhibition of clonogenic growth ([4]; 5 μM BMLOV) | colonies formed ([4]; 5 μM BMLOV) | percentage of inhibition of clonogenic growth ([4]; 10 μM BMLOV) | colonies formed ([4]; 10 μM BMLOV) | [3H]cpm incorporation ([5]; 1 μM BMLOV) | [3H]cpm incorporation ([5]; 5 μM BMLOV) | [3H]cpm incorporation ([5]; 10 μM BMLOV) | [3H]cpm incorporation ([5]; 25 μM BMLOV) | sensitivity of proliferation to BMLOV, in words ([5]; 25 μM, 5 or 7 days) | nuclear morphology by CLSM [6]
[Na+].[O]=[V-]12([O][O]1)[O][O]2.c1cnc2c(c1)ccc1cccnc12 [pV(phen), sodium (1,10-phenanthroline) oxodiperoxovanadium (V)] | fragmentation of DNA demonstrates apoptosis | inhibits all cell types studied | – | – | – | – | – | – | – | – | – | – | – | – | –
Cc1occc(=O)c1[O-].Cc1occc(=O)c1[O-].[O]=[V+2] [BMLOV, Bis(maltolato)oxovanadium (IV)] | – | – | weakly induce tyrosine phosphorylation | 64.7% | 1810 ± 385 colonies per 10^4 cells | 98.6% | 71 ± 8 colonies per 10^4 cells | 99.8% | 8 ± 1 colonies per 10^4 cells | 265036 cpm | 226714 cpm | 55396 cpm | 195 cpm | highly sensitive | extensive loss of DNA, condensation of chromatin
